In brackets after ≈: the same amount, converted by molar mass. Where two headings read alike, the source gives them in different places. One block for each molecule: values may come before it.
Assay: Solubility of drugs in vegetable oils (castor oil, soybean oil)
Conditions: for solubility: oil or lipid, thermodynamic from solid
Protocol: The solubility of flurbiprofen in different vegetable oils was measured by the addition of increasing quantities of the drug to an oil system and determination of the maximum amount that will dissolve by observation of the resultant solution and the onset of a cloudy nature or precipitation.

Solubility in soybean oil (room temperature, soybean oil): <10 mg/g
Compound: CN1CCc2cccc3c2[C@H]1Cc1ccc(O)c(O)c1-3 [Apomorphine]

Solubility in castor oil: >15 < 20 mg/g | Solubility in soybean oil: <5 mg/g
Compound: COc1ccc2c(c1)c(CC(=O)O)c(C)n2C(=O)c1ccc(Cl)cc1 [Indomethacin]

solubility (castor oil BP): 150 mg/mL (≈ 614 mM) | solubility (soybean oil BP): < 50 mg/mL
Compound: CC(C(=O)O)c1ccc(-c2ccccc2)c(F)c1 (centres unmarked) [flurbiprofen]
